Converted amounts (≈) assume the structure as drawn.
What was measured:
MCF7 = assay: Cytotoxicity against human MCF7 cells assessed as reduction in cell viability incubated for 24 hrs by PrestoBlue reagent based fluorescence assay; assay type: toxicity; details: mcf7, 24 h
Bacillus subtilis = assay: Antibacterial activity against Bacillus subtilis assessed as inhibition of bacterial growth incubated for 4 to 20 hrs by resazurin based microplate reader analysis; assay type: functional; details: time 4-20 hrs

Structure (SMILES)	Activity (MCF7)	MIC (Bacillus subtilis)
COc1c(O)cc2c(oc3c4cc(O)ccc4ccc23)c1CC=C(C)C	Non-Toxic	–
CC1(C)C=Cc2c(-c3ccc4ccc(O)cc4c3)ccc(O)c2O1	Non-Toxic	9 µM (≈ 2.87 µg/mL)
COc1ccc2ccc3c4cc(O)c(OC)c(CC=C(C)C)c4oc3c2c1	Non-Toxic	–

— ChEMBL document CHEMBL5252652, “Benzo[b]naphtho[2,1-d]furans and 2-Phenylnaphthalenes from Streblus usambarensis” (J Nat Prod, 2023)
